# Laboratory results: patent publication US7879852B2, “Melanocortin receptor agonists” (LG Life Sciences Ltd., priority 2006, dated 2011)
# Biological target: T1, human melanocortin receptor 4 (MC4R) (Homo sapiens, UniProt P32245)
# T1 construct: expressed in transfected cells; grown with 200 ug/ml Geneticin
# Experiment: Luciferase assay
# Assay type: cell-based
# Conditions: agonistic activity at MC4R (Table 18); patent does not state whether luciferase or cAMP assay
# Description: Cell lines expressing human melanocortin receptor 4 (MC4R) were dissociated from tissue culture dishes by rinsing with Ca^++, Mg^++ free DPBS, treated with 1× Trypsin/EDTA solution for 1 min at 37° C., and resuspended with DMRM (GIBCO-BRL) supplemented with 10% FBS. The cells were counted and diluted with DMEM supplemented with 10% FBS and 200 ug/ml of Geneticin to […]. 90 ul of cell suspension was plated onto each well of 96-well black and clear bottom culture plates (Costar). After the incubation for 24 h in the atmosphere of 6% CO2 at 37° C., 10 ul of NDP-MSH and test compounds diluted in DMSO were added to each well. The final DMSO concentration was 1%. After 4 h of incubation in the atmosphere of 6% CO2 at 37° C., 50 ul of Bright-Glo (Promega) was added to each well. Luciferase activity was measured by using L-Max luminometer (Molecular Device). The amount of luciferase activity induced by treatment with NDP-MSH was defined as 100% to obtain the relative efficacy of test compounds. The EC0.5 MSH was defined as the concentration of test compounds that results in half maximal activity of NDP-MSH. The EC50 was defined as the concentration of test compound that results in half maximal activity of its own.
# T1 sequence (P32245 whole entry): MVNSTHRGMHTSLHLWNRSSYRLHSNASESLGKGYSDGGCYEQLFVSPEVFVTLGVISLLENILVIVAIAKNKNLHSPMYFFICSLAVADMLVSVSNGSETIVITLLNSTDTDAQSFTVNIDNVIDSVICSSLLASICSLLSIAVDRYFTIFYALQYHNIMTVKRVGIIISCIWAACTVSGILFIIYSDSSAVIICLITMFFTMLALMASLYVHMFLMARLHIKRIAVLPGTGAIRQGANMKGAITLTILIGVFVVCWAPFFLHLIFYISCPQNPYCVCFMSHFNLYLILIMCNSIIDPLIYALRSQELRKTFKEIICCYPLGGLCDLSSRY
row,Structure (SMILES),EC50 [nM]
1,"CCN(C)C(=O)[C@@H]1C[C@H](N(C(=O)C(C)(C)COC)C2CCC(F)(F)CC2)CN1C(=O)C1CN(C(C)(C)C)C[C@H]1c1ccc(Cl)cc1 (stereo partly drawn) [Example C9, N-[(3S)-1-{[(3S,4R)-1-tert-butyl-4-(4-chlorophenyl)pyrrolidine-3-yl]carbonyl}pyrrolidine-3-yl]-N-[(4,4-difluorocyclohexyl)(3-methoxy-2,2-dimethylpropanoyl)amino]-N-ethyl-N-methyl-L-prolineamide]",41
2,"CN(C)C(=O)[C@@H]1C[C@H](N(C(=O)C(C)(C)C)c2ccc(F)cc2F)CN1C(=O)[C@@H]1CN(C(C)(C)C)C[C@H]1c1ccc(Cl)cc1 [Example D1, (4S)-1-{[(3S,4R)-1-tert-butyl-4-(4-chlorophenyl)pyrrolidine-3-yl]carbonyl}-4-[(2,4-difluorophenyl)(2,2-dimethylpropanoyl)amino]-N,N-dimethyl-L-prolineamide]",47
3,CC1CCC(N(C(=O)c2ccoc2)C2CCN(C(=O)C3CNCC3c3ccc(Cl)cc3)C2)CC1 (stereo not shown) [Example E1-14],23
4,"CC1(C)CCC(N(C(=O)C(C)(C)C(N)=O)[C@H]2CCN(C(=O)C3CN(C(C)(C)C)C[C@H]3c3ccc(Cl)cc3)C2)CC1 (stereo partly drawn) [Example C1, N-[(3S)-1-{[(3S,4R)-1-tert-butyl-4-(4-chlorophenyl)pyrrolidine-3-yl]carbonyl}pyrrolidine-3-yl]-N-(4,4-dimethylcyclohexyl)-2,2-dimethylmaloneamide]",38
5,CC1CCC(N(C(=O)C(C)(C)C)C2CC(C(N)=S)N(C(=O)C3CN(C(C)(C)C)CC3c3ccc(F)cc3F)C2)CC1 (stereo not shown) [Example B28],14
6,"CCN(C)C(=O)[C@@H]1C[C@H](N(C(=O)C(C)(C)CS)C2CCC(C)(C)CC2)CN1C(=O)[C@@H]1CN(C(C)(C)C)C[C@H]1c1ccc(F)cc1F [Example C14, (4S)-1-{[(3S,4R)-1-tert-butyl-4-(2,4-difluorophenyl)pyrrolidine-3-yl]carbonyl}-4-[(4,4-dimethylcyclohexyl)(3-mercapto-2,2-dimethylpropanoyl)amino]-N-ethyl-N-methyl-L-prolineamide]",66
7,"CN(C)C(=O)[C@@H]1C[C@H](N(C(=O)C(C)(C)C(N)=O)C2CCC(C)(C)CC2)CN1C(=O)C1CN(C(C)(C)C)C[C@H]1c1ccc(Cl)cc1 (stereo partly drawn) [Example C12, N-{(3S,5S)-1-{[(3S,4R)-1-tert-butyl-4-(4-chlorophenyl)pyrrolidine-3-yl]carbonyl}-5-[(dimethylamino)carbonyl]pyrrolidine-3-yl}-N-(4,4-dimethylcyclohexyl)-2,2-dimethylmaloneamide]",95
8,"CC1(C)CCC(N(C(=O)C(C)(C)C)[C@H]2C[C@@H](CO)N(C(=O)[C@@H]3CN(C(C)(C)C)C[C@H]3c3ccc(Cl)cc3)C2)CC1 [Example B4, N-[(3S,5S)-1-{[(3S,4R)-1-tert-butyl-4-(4-chlorophenyl)pyrrolidine-3-yl]carbonyl}-5-(hydroxymethyl)pyrrolidine-3-yl]-N-(4,4-dimethylcyclohexyl)-2,2-dimethylpropaneamide]",16
9,CC1CCC(N(C(=O)C2=CCOC2)C2CCN(C(=O)C3CNCC3c3ccc(Cl)cc3)C2)CC1 (stereo not shown) [Example E1-23],21
10,"CC(=O)C(C)(C)C(=O)N(C1CCC(C)(C)CC1)[C@H]1CCN(C(=O)[C@@H]2CN(C(C)(C)C)C[C@H]2c2ccc(Cl)cc2)C1 [Example C5, N-[(3S)-1-{[(3S,4R)-1-tertbutyl-4-(4-chlorophenyl)pyrrolidine-3-yl]carbonyl}pyrrolidine-3-yl]-N-(4,4-dimethylcyclohexyl)-2,2-dimethyl-3-oxobutaneamide]",6
